Measured values as given in ChEMBL document CHEMBL5543109, “Novel β-Hairpin Antimicrobial Peptide Containing the β-Turn Sequence of -NG- and the Tryptophan Zippers Facilitate Self-Assembly into Nanofibers, Exhibiting Excellent Antimicrobial Performance” (J Med Chem, 2024).
In brackets after ≈: the same amount, converted by molar mass.

Experiments:
[1] = tested on: Staphylococcus epidermidis; experiment: Bactericidal activity against Staphylococcus epidermidis ATCC 12228 incubated for 18 hrs by broth microdilution method; type: functional
Staphylococcus aureus [2] = experiment: Antibacterial activity against Staphylococcus aureus ATCC 25923 incubated for 18 hrs by broth microdilution method; type: functional
Klebsiella pneumoniae [3] = experiment: Bactericidal activity against Klebsiella pneumoniae ATCC 700603 incubated for 18 hrs by broth microdilution method; type: functional
Pseudomonas aeruginosa [4] = experiment: Bactericidal activity against Pseudomonas aeruginosa ATCC 27853 incubated for 18 hrs by broth microdilution method; type: functional
Escherichia coli [5] = experiment: Antibacterial activity against Escherichia coli ATCC 25922 incubated for 18 hrs by broth microdilution method; type: functional
Escherichia coli [6] = experiment: Bactericidal activity against Escherichia coli ATCC 25922 incubated for 18 hrs by broth microdilution method; type: functional
Staphylococcus aureus [7] = experiment: Antibacterial activity against Staphylococcus aureus at 2 times MIC preincubated for 1 hr with trypsin followed by enzyme inactivation and bacterial addition and measured after 18 hrs; type: functional; settings: time 19 hrs
Bacillus subtilis [8] = experiment: Antibacterial activity against Bacillus subtilis ATCC 23857 incubated for 18 hrs by broth microdilution method; type: functional
Klebsiella pneumoniae [9] = experiment: Antibacterial activity against Klebsiella pneumoniae ATCC 700603 incubated for 18 hrs by broth microdilution method; type: functional
Erythrocyte = experiment: Hemolytic activity in mouse erythrocytes assessed as concentration required to cause 10% hemolysis incubated for 1 hr; type: toxicity, cell-based
Staphylococcus aureus [10] = experiment: Antibacterial activity against Staphylococcus aureus at 2 times MIC preincubated for 1 hr with chymotrypsin followed by enzyme inactivation and bacterial addition and measured after 18 hrs; type: functional; settings: time 19 hrs
Staphylococcus aureus [11] = experiment: Bactericidal activity against Staphylococcus aureus ATCC 25923 incubated for 18 hrs by broth microdilution method; type: functional
Pseudomonas aeruginosa [12] = experiment: Antibacterial activity against Pseudomonas aeruginosa ATCC 27853 incubated for 18 hrs by broth microdilution method; type: functional
[13] = Retention time of the compound; type: physicochemical
Bacillus subtilis [14] = experiment: Bactericidal activity against Bacillus subtilis ATCC 23857 incubated for 18 hrs by broth microdilution method; type: functional
[15] = tested on: Staphylococcus epidermidis; experiment: Antibacterial activity against Staphylococcus epidermidis ATCC 12228 incubated for 18 hrs by broth microdilution method; type: functional
[16] = Self-assembly property of compound in water assessed as beta-sheet content; type: physicochemical
[17] = Self-assembly property of compound in 50% TFE assessed as beta-sheet content; type: physicochemical
[18] = Self-assembly property of compound in PBS assessed as beta-sheet content; type: physicochemical; settings: buffer
Staphylococcus aureus [19] = experiment: Antibacterial activity against methicillin resistant Staphylococcus aureus incubated for 18 hrs by broth microdilution method; type: functional
Staphylococcus aureus [20] = experiment: Antibacterial activity against rifampicin resistant Staphylococcus aureus incubated for 18 hrs by broth microdilution method; type: functional
Staphylococcus aureus [21] = experiment: Antibacterial activity against Staphylococcus aureus incubated for 18 hrs by broth microdilution method; type: functional
Staphylococcus aureus [22] = experiment: Antibacterial activity against methicillin resistant Staphylococcus aureus 75 incubated for 18 hrs by broth microdilution method; type: functional
Staphylococcus aureus [23] = experiment: Antibacterial activity against methicillin resistant Staphylococcus aureus 113 incubated for 18 hrs by broth microdilution method; type: functional
Staphylococcus aureus [24] = experiment: Antibacterial activity against Staphylococcus aureus S125 incubated for 18 hrs by broth microdilution method; type: functional
Staphylococcus aureus [25] = experiment: Antibacterial activity against kanamycin resistant Staphylococcus aureus incubated for 18 hrs by broth microdilution method; type: functional
Escherichia coli [26] = experiment: Antibacterial activity against rifampicin resistant Escherichia coli incubated for 18 hrs by broth microdilution method; type: functional
Escherichia coli [27] = experiment: Antibacterial activity against Escherichia coli incubated for 18 hrs by broth microdilution method; type: functional
Escherichia coli [28] = experiment: Antibacterial activity against kanamycin resistant Escherichia coli incubated for 18 hrs by broth microdilution method; type: functional
Staphylococcus aureus [29] = experiment: Antibacterial activity against Staphylococcus aureus S794 incubated for 18 hrs by broth microdilution method; type: functional

Row | Molecule | MBC [1] [µM] | MIC (Staphylococcus aureus [2]) [µM] | MBC (Klebsiella pneumoniae [3]) [µM] | MBC (Pseudomonas aeruginosa [4]) [µM] | MIC (Escherichia coli [5]) [µM] | MBC (Escherichia coli [6]) [µM] | Activity (Staphylococcus aureus [7]) [%] | MIC (Bacillus subtilis [8]) [µM] | MIC (Klebsiella pneumoniae [9]) [µM] | MHC (Erythrocyte) [µM] | Activity (Staphylococcus aureus [10]) [%] | MBC (Staphylococcus aureus [11]) [µM] | MIC (Pseudomonas aeruginosa [12]) [µM] | Retention_time [13] [min] | MBC (Bacillus subtilis [14]) [µM] | MIC [15] [µM] | MIC (Staphylococcus aureus [19]) [µM] | MIC (Staphylococcus aureus [20]) [nM] | MIC (Staphylococcus aureus [21]) [nM] | MIC (Staphylococcus aureus [22]) [µM] | further results
1 | NCCCC[C@@H](N)C(=O)N[C@H](Cc1c[nH]c2ccccc12)C(=O)N[C@H](CCCCN)C(=O)N[C@H](Cc1c[nH]c2ccccc12)C(=O)N[C@H](CCCCN)C(=O)N1CCC[C@@H]1C(=O)N1CCC[C@H]1C(=O)N[C@H](CCCCN)C(=O)N[C@H](Cc1c[nH]c2ccccc12)C(=O)N[C@H](CCCCN)C(=O)N[C@H](Cc1c[nH]c2ccccc12)C(=O)N[C@H](CCCCN)C(N)=O | 8 (≈ 13.8 µg/mL) | 32 (≈ 55.2 µg/mL) | 16 (≈ 27.6 µg/mL) | 32 (≈ 55.2 µg/mL) | 8 (≈ 13.8 µg/mL) | 8 (≈ 13.8 µg/mL) | 100 | 4 (≈ 6.9 µg/mL) | 16 (≈ 27.6 µg/mL) | > 512 | 100 | 64 (≈ 110 µg/mL) | 4 (≈ 6.9 µg/mL) | 11.03 | 8 (≈ 13.8 µg/mL) | 4 (≈ 6.9 µg/mL) | – | – | – | – | –
2 | NCCCC[C@@H](N)C(=O)N[C@H](Cc1c[nH]c2ccccc12)C(=O)N[C@H](CCCCN)C(=O)N[C@H](Cc1c[nH]c2ccccc12)C(=O)N[C@H](CCCCN)C(=O)N1CCC[C@H]1C(=O)NCC(=O)N[C@H](CCCCN)C(=O)N[C@H](Cc1c[nH]c2ccccc12)C(=O)N[C@H](CCCCN)C(=O)N[C@H](Cc1c[nH]c2ccccc12)C(=O)N[C@H](CCCCN)C(N)=O | 8 (≈ 13.5 µg/mL) | 32 (≈ 53.9 µg/mL) | 64 (≈ 108 µg/mL) | 128 (≈ 216 µg/mL) | 8 (≈ 13.5 µg/mL) | 16 (≈ 27 µg/mL) | 100 | 2 (≈ 3.37 µg/mL) | 32 (≈ 53.9 µg/mL) | > 512 | 100 | 32 (≈ 53.9 µg/mL) | 64 (≈ 108 µg/mL) | 11.212 | 8 (≈ 13.5 µg/mL) | 4 (≈ 6.74 µg/mL) | – | – | – | – | Activity [16]: 84.3%; Activity [17]: 39.2%; Activity [18]: 80.2%
3 | NCCCC[C@@H](N)C(=O)N[C@H](Cc1c[nH]c2ccccc12)C(=O)N[C@H](CCCCN)C(=O)N[C@H](Cc1c[nH]c2ccccc12)C(=O)N[C@H](CCCCN)C(=O)NCC(=O)NCC(=O)N[C@H](CCCCN)C(=O)N[C@H](Cc1c[nH]c2ccccc12)C(=O)N[C@H](CCCCN)C(=O)N[C@H](Cc1c[nH]c2ccccc12)C(=O)N[C@H](CCCCN)C(N)=O | 8 (≈ 13.2 µg/mL) | 16 (≈ 26.3 µg/mL) | 64 (≈ 105 µg/mL) | 128 (≈ 211 µg/mL) | 8 (≈ 13.2 µg/mL) | 8 (≈ 13.2 µg/mL) | 100 | 2 (≈ 3.29 µg/mL) | 16 (≈ 26.3 µg/mL) | > 512 | 100 | 32 (≈ 52.6 µg/mL) | 64 (≈ 105 µg/mL) | 11.03 | 8 (≈ 13.2 µg/mL) | 4 (≈ 6.58 µg/mL) | – | – | – | – | –
4 | NCCCC[C@@H](N)C(=O)N[C@H](Cc1c[nH]c2ccccc12)C(=O)N[C@H](CCCCN)C(=O)N[C@H](Cc1c[nH]c2ccccc12)C(=O)N[C@H](CCCCN)C(=O)N[C@@H](CC(N)=O)C(=O)NCC(=O)N[C@H](CCCCN)C(=O)N[C@H](Cc1c[nH]c2ccccc12)C(=O)N[C@H](CCCCN)C(=O)N[C@H](Cc1c[nH]c2ccccc12)C(=O)N[C@H](CCCCN)C(N)=O | 8 (≈ 13.6 µg/mL) | 16 (≈ 27.2 µg/mL) | 128 (≈ 218 µg/mL) | 128 (≈ 218 µg/mL) | 8 (≈ 13.6 µg/mL) | 8 (≈ 13.6 µg/mL) | 100 | 2 (≈ 3.4 µg/mL) | 64 (≈ 109 µg/mL) | > 512 | 100 | 64 (≈ 109 µg/mL) | 32 (≈ 54.5 µg/mL) | 11.03 | 8 (≈ 13.6 µg/mL) | 4 (≈ 6.81 µg/mL) | – | – | – | – | –
5 | GENTAMICIN | – | – | – | – | – | – | – | – | – | – | – | – | – | – | – | – | 16 | 500 | 500 | 32 | MIC (Staphylococcus aureus [23]): 0.5 µM; MIC (Staphylococcus aureus [24]): 8 µM; MIC (Staphylococcus aureus [25]): 500 nM; MIC (Escherichia coli [26]): 500 nM; MIC (Escherichia coli [27]): 500 nM; MIC (Escherichia coli [28]): 32 µM; MIC (Staphylococcus aureus [29]): 32 µM
6 | CN[C@@H]1[C@H](O[C@H]2[C@H](O[C@H]3[C@H](O)[C@@H](O)[C@H](N=C(N)N)[C@@H](O)[C@@H]3N=C(N)N)O[C@@H](C)[C@]2(O)C=O)O[C@@H](CO)[C@H](O)[C@H]1O [STREPTOMYCIN] | – | – | – | – | – | – | – | – | – | – | – | – | – | – | – | – | 32 (≈ 18.6 µg/mL) | 2000 (≈ 1.16 µg/mL) | 500 (≈ 0.291 µg/mL) | 32 (≈ 18.6 µg/mL) | MIC (Staphylococcus aureus [23]): 64 µM (≈ 37.2 µg/mL); MIC (Staphylococcus aureus [24]): 32 µM (≈ 18.6 µg/mL); MIC (Staphylococcus aureus [25]): 4000 nM (≈ 2.33 µg/mL); MIC (Escherichia coli [26]): 2000 nM (≈ 1.16 µg/mL); MIC (Escherichia coli [27]): 4000 nM (≈ 2.33 µg/mL); MIC (Escherichia coli [28]): 64 µM (≈ 37.2 µg/mL); MIC (Staphylococcus aureus [29]): 128 µM (≈ 74.4 µg/mL)
